Measurements taken from patent US20260345619A1 (Principia Biopharma Inc., priority 2023, published 2026).

Experiment: Asthma Quality of Life Questionnaire with Standardized Activities (AQLQ(S))
Format: in vivo, human
Conditions: for AQLQ global score responders at Week 12, number / AQLQ global score responders at Week 12, percentage: improvement ≥0.5 from baseline
Description: The AQLQ(S) is a self-administered patient reported outcome to measure the functional impairments that are most troublesome to adolescents and adults ≥12 years of age as a result of their asthma.
Asthma Quality of Life Questionnaire with Standardized Activities (AQLQ(S)) self-administered (≥12 years)
The AQLQ(S) was designed as a self-administered patient reported outcome to measure the functional impairments that are most troublesome to adolescents and adults ≥12 years of age as a result of their asthma. The instrument is comprised of 32 items, each rated on a 7-point Likert scales from 1 to 7. The AQLQ(S) has 4 domains. The domains and the number of items in each domain are as follows: • Symptoms (12 items) • Activity limitation (11 items) • Emotional function (5 items) • Environmental stimuli (4 items)
A global score is calculated ranging from 1 to 7 and a score by domain. Higher scores indicate better quality of life. […] Patients were to complete the questionnaire in an electronic diary during on-site visits.
Secondary endpoints included pre-bronchodilator FEV1 change from baseline at EOT, ACQ-5 score change from baseline, and AQLQ score change from baseline. Other secondary and exploratory endpoints are described in Table 2.

[1] = 400 mg BID, observed/LOCF imputed, n=29, mITT
[2] = 400 mg TID, observed/LOCF imputed, n=53, mITT

SMILES: CC(C)(C=C(C#N)C(=O)N1CCC[C@@H](n2nc(-c3ccc(Oc4ccccc4)cc3F)c3c(N)ncnc32)C1)N1CCN(C2COC2)CC1 (mixture of isomers) [rilzabrutinib, (R)-2-[3-[4-amino-3-(2-fluoro-4-phenoxy-phenyl)pyrazolo[3,4-d]pyrimidin-1-yl]piperidine-1-carbonyl]-4-methyl-4-[4-(oxetan-3-yl)piperazin-1-yl]pent-2-enenitrile]
- AQLQ global score responder analysis at Week 12, OR vs. placebo (95% CI) (400 mg BID, 95% CI 1.19, 20.17, mITT): 4.89
- AQLQ global score responders (including multiply imputed) at Week 12, number (400 mg BID, N=32, mITT): 16.6
- AQLQ global score responders (including multiply imputed) at Week 12, percentage (400 mg BID, N=32, mITT): (51.7)
- AQLQ global score responders at Week 12, number [1]: 15
- AQLQ global score responders at Week 12, percentage [1]: (51.7) (14/1) %
- AQLQ global score change from baseline at Week 12, LS Mean Diff vs. placebo (400 mg BID, mITT, 1 asthma exacerbation within 2 years): 0.75
- AQLQ global score change from baseline at Week 12, LS Mean Diff vs. placebo (400 mg BID, mITT, 2 asthma exacerbations within 2 years): 0.61
- AQLQ global score change from baseline at Week 12, LS Mean Diff vs. placebo (400 mg BID, mITT, >2 asthma exacerbations within 2 years): 1.18
- AQLQ global score change from baseline at Week 12, LS Mean Diff vs. placebo (400 mg BID, mITT, Eastern Europe): 0.08
- AQLQ global score change from baseline at Week 12, LS Mean Diff vs. placebo (400 mg BID, mITT, Latin America): 0.87
- AQLQ global score change from baseline at Week 12, LS Mean Diff vs. placebo (400 mg BID, mITT, age <45 years): 0.20
- AQLQ global score change from baseline at Week 12, LS Mean Diff vs. placebo (400 mg BID, mITT, age at asthma onset <12 years): 0.34
- AQLQ global score change from baseline at Week 12, LS Mean Diff vs. placebo (400 mg BID, mITT, age at asthma onset <18 years): 0.43
- AQLQ global score change from baseline at Week 12, LS Mean Diff vs. placebo (400 mg BID, mITT, age at asthma onset ≥12-<18 years): 2.49
- AQLQ global score change from baseline at Week 12, LS Mean Diff vs. placebo (400 mg BID, mITT, age at asthma onset ≥18-<40 years): 0.57
- AQLQ global score change from baseline at Week 12, LS Mean Diff vs. placebo (400 mg BID, mITT, age at asthma onset ≥18 years): 0.75
- AQLQ global score change from baseline at Week 12, LS Mean Diff vs. placebo (400 mg BID, mITT, age at asthma onset ≥40 years): 0.93
- AQLQ global score change from baseline at Week 12, LS Mean Diff vs. placebo (400 mg BID, mITT, age ≥45 years): 1.04
- AQLQ global score change from baseline at Week 12, LS Mean Diff vs. placebo (400 mg BID, mITT, all others than low EOS and low FeNO): 0.61
- AQLQ global score change from baseline at Week 12, LS Mean Diff vs. placebo (400 mg BID, mITT, atopic medical conditions: no): 1.08
- AQLQ global score change from baseline at Week 12, LS Mean Diff vs. placebo (400 mg BID, mITT, atopic medical conditions: yes): 0.52
- AQLQ global score change from baseline at Week 12, LS Mean Diff vs. placebo (400 mg BID, mITT, baseline ACQ-5 score >2): 0.95
- AQLQ global score change from baseline at Week 12, LS Mean Diff vs. placebo (400 mg BID, mITT, baseline ACQ-5 score ≤2): 0.43
- AQLQ global score change from baseline at Week 12, LS Mean Diff vs. placebo (400 mg BID, mITT, baseline BMI <25 kg/m^2): 1.00
- AQLQ global score change from baseline at Week 12, LS Mean Diff vs. placebo (400 mg BID, mITT, baseline BMI ≥25-<30 kg/m^2): 0.67
- AQLQ global score change from baseline at Week 12, LS Mean Diff vs. placebo (400 mg BID, mITT, baseline BMI ≥30 kg/m^2): 0.73
- AQLQ global score change from baseline at Week 12, LS Mean Diff vs. placebo (400 mg BID, mITT, baseline FEV1 reversibility <12%): 0.73
- AQLQ global score change from baseline at Week 12, LS Mean Diff vs. placebo (400 mg BID, mITT, baseline FEV1 reversibility ≥12%): 0.29
- AQLQ global score change from baseline at Week 12, LS Mean Diff vs. placebo (400 mg BID, mITT, baseline FeNO <25 ppb): 0.98
- AQLQ global score change from baseline at Week 12, LS Mean Diff vs. placebo (400 mg BID, mITT, baseline FeNO <35 ppb): 0.84
- AQLQ global score change from baseline at Week 12, LS Mean Diff vs. placebo (400 mg BID, mITT, baseline FeNO ≥25 ppb): 0.51
- AQLQ global score change from baseline at Week 12, LS Mean Diff vs. placebo (400 mg BID, mITT, baseline FeNO ≥35 ppb): 0.77
- AQLQ global score change from baseline at Week 12, LS Mean Diff vs. placebo (400 mg BID, mITT, baseline IgE <100 IU/mL): 0.90
- AQLQ global score change from baseline at Week 12, LS Mean Diff vs. placebo (400 mg BID, mITT, baseline IgE <median 210.8 IU/mL): 1.03
- AQLQ global score change from baseline at Week 12, LS Mean Diff vs. placebo (400 mg BID, mITT, baseline IgE ≥100 IU/mL): 0.59
- AQLQ global score change from baseline at Week 12, LS Mean Diff vs. placebo (400 mg BID, mITT, baseline IgE ≥median 210.8 IU/mL): 0.67
- AQLQ global score change from baseline at Week 12, LS Mean Diff vs. placebo (400 mg BID, mITT, baseline blood eosinophil level 1 <0.15 10^9/L): 0.62
- AQLQ global score change from baseline at Week 12, LS Mean Diff vs. placebo (400 mg BID, mITT, baseline blood eosinophil level 1 ≥0.15 10^9/L): 0.69
- AQLQ global score change from baseline at Week 12, LS Mean Diff vs. placebo (400 mg BID, mITT, baseline blood eosinophil level 2 <0.3 10^9/L): 0.79
- AQLQ global score change from baseline at Week 12, LS Mean Diff vs. placebo (400 mg BID, mITT, baseline blood eosinophil level 2 ≥0.3 10^9/L): 0.67
- AQLQ global score change from baseline at Week 12, LS Mean Diff vs. placebo (400 mg BID, mITT, baseline percent predicted FEV1 <68%): 0.92
- AQLQ global score change from baseline at Week 12, LS Mean Diff vs. placebo (400 mg BID, mITT, baseline percent predicted FEV1 ≥68%): 0.47
- AQLQ global score change from baseline at Week 12, LS Mean Diff vs. placebo (400 mg BID, mITT, baseline pre-bronchodilator FEV1 <2.022 L): 0.89
- AQLQ global score change from baseline at Week 12, LS Mean Diff vs. placebo (400 mg BID, mITT, baseline pre-bronchodilator FEV1 ≥2.022 L): 0.54
- AQLQ global score change from baseline at Week 12, LS Mean Diff vs. placebo (400 mg BID, mITT, baseline weight <60 kg): 1.63
- AQLQ global score change from baseline at Week 12, LS Mean Diff vs. placebo (400 mg BID, mITT, baseline weight ≥60-<90 kg): 0.70
- AQLQ global score change from baseline at Week 12, LS Mean Diff vs. placebo (400 mg BID, mITT, baseline weight ≥90 kg): −0.26
- AQLQ global score change from baseline at Week 12, LS Mean Diff vs. placebo (400 mg BID, mITT, female): 0.73
- AQLQ global score change from baseline at Week 12, LS Mean Diff vs. placebo (400 mg BID, mITT, former smokers): 1.89
- AQLQ global score change from baseline at Week 12, LS Mean Diff vs. placebo (400 mg BID, mITT, low EOS (<0.15) and low FeNO (<25)): 2.45
- AQLQ global score change from baseline at Week 12, LS Mean Diff vs. placebo (400 mg BID, mITT, male): 0.41
- AQLQ global score change from baseline at Week 12, LS Mean Diff vs. placebo (400 mg BID, mITT, never smokers): 0.65
- AQLQ global score non-responders at Week 12, number [1]: 14
- AQLQ global score non-responders at Week 12, percentage [1]: (48.3) (10/4)
- participants with AQLQ improvement of at least 0.5 from baseline at Week 12 (400 mg BID, placebo 34.5%, p=0.0281): 51.7%
- AQLQ global score responder analysis at Week 12, OR vs. placebo (95% CI) (400 mg TID, 95% CI 1.02, 4.89, mITT): 2.23
- AQLQ global score responders (including multiply imputed) at Week 12, number (400 mg TID, N=64, mITT): 32.9
- AQLQ global score responders (including multiply imputed) at Week 12, percentage (400 mg TID, N=64, mITT): (51.4)
- AQLQ global score responders at Week 12, number [2]: 29
- AQLQ global score responders at Week 12, percentage [2]: (54.7) (28/1) %
- AQLQ global score change from baseline at Week 12, LS Mean Diff vs. placebo (400 mg TID, mITT, 1 asthma exacerbation within 2 years): 0.29
- AQLQ global score change from baseline at Week 12, LS Mean Diff vs. placebo (400 mg TID, mITT, 2 asthma exacerbations within 2 years): 0.27
- AQLQ global score change from baseline at Week 12, LS Mean Diff vs. placebo (400 mg TID, mITT, Eastern Europe): 0.43
- AQLQ global score change from baseline at Week 12, LS Mean Diff vs. placebo (400 mg TID, mITT, Latin America): −0.22
- AQLQ global score change from baseline at Week 12, LS Mean Diff vs. placebo (400 mg TID, mITT, age <45 years): 0.43
- AQLQ global score change from baseline at Week 12, LS Mean Diff vs. placebo (400 mg TID, mITT, age at asthma onset <12 years): 0.46
- AQLQ global score change from baseline at Week 12, LS Mean Diff vs. placebo (400 mg TID, mITT, age at asthma onset <18 years): 0.31
- AQLQ global score change from baseline at Week 12, LS Mean Diff vs. placebo (400 mg TID, mITT, age at asthma onset ≥12-<18 years): −0.37
- AQLQ global score change from baseline at Week 12, LS Mean Diff vs. placebo (400 mg TID, mITT, age at asthma onset ≥18-<40 years): 0.25
- AQLQ global score change from baseline at Week 12, LS Mean Diff vs. placebo (400 mg TID, mITT, age at asthma onset ≥18 years): 0.24
- AQLQ global score change from baseline at Week 12, LS Mean Diff vs. placebo (400 mg TID, mITT, age at asthma onset ≥40 years): 0.29
- AQLQ global score change from baseline at Week 12, LS Mean Diff vs. placebo (400 mg TID, mITT, age ≥45 years): 0.15
